Reference: patent publication US8034924B2, “Process for production of crystal of purine nucleoside compound” (Ajinomoto Co., Inc., priority 2007, dated 2011)

assay: Storage stability of crystals of 2′,3′-dideoxyinosine (increase of hypoxanthine after storage, HPLC); assay type: physicochemical; settings: crystals stored at 60° C., at RH75% for 7 days; Table 1
Protocol: In order to examine the storage stability, the obtained crystals were stored at 60° C., at RH75% for 7 days.
The concentration of the phosphate on the surface of the crystals and the amount of hypoxanthine were analyzed in the conditions shown in the following Table 2.

Row | Increase of hypoxanthine after storage (%/DDI) | Compound
1 | 2.24 %/DDI | OC[C@@H]1CC[C@H](n2cnc3c(O)ncnc32)O1 [Comp. Ex. 1, 2′,3′-dideoxyinosine, reference compound]
2 | 1.91 %/DDI | OC[C@@H]1CC[C@H](n2cnc3c(O)ncnc32)O1 [Comp. Ex. 2, 2′,3′-dideoxyinosine, reference compound]
3 | 2.21 %/DDI | OC[C@@H]1CC[C@H](n2cnc3c(O)ncnc32)O1 [Comp. Ex. 3, 2′,3′-dideoxyinosine, reference compound]
4 | 2.20 %/DDI | OC[C@@H]1CC[C@H](n2cnc3c(O)ncnc32)O1 [Comp. Ex. 4, 2′,3′-dideoxyinosine, reference compound]
5 | 0.45 %/DDI | OC[C@@H]1CC[C@H](n2cnc3c(O)ncnc32)O1 [Ex. 1, 2′,3′-dideoxyinosine]
6 | 0.48 %/DDI | OC[C@@H]1CC[C@H](n2cnc3c(O)ncnc32)O1 [Ex. 2, 2′,3′-dideoxyinosine]
7 | 0.20 %/DDI | OC[C@@H]1CC[C@H](n2cnc3c(O)ncnc32)O1 [Ex. 3, 2′,3′-dideoxyinosine]
8 | 0.54 %/DDI | OC[C@@H]1CC[C@H](n2cnc3c(O)ncnc32)O1 [Ex. 4, 2′,3′-dideoxyinosine]

same assay, conditions: crystals stored at 60° C., at RH75% for 7 days; Table 3, phosphate removed by suspending in water vs Example 3

Row | Increase of hypoxanthine after storage (%/DDI) | Compound
9 | 4.32 %/DDI | OC[C@@H]1CC[C@H](n2cnc3c(O)ncnc32)O1 [Comp. Ex. 5, 2′,3′-dideoxyinosine, reference compound]
10 | 0.20 %/DDI | OC[C@@H]1CC[C@H](n2cnc3c(O)ncnc32)O1 [Ex. 3, 2′,3′-dideoxyinosine]

same assay, conditions: crystals stored at 60° C., at RH75% for 7 days; Table 4, degree of washing changed per sample

Row | Increase of hypoxanthine after storage (%/DDI) | Compound
11 | 2.47 %/DDI | OC[C@@H]1CC[C@H](n2cnc3c(O)ncnc32)O1 [Comp. Ex. 6, 2′,3′-dideoxyinosine, reference compound]
12 | 2.24 %/DDI | OC[C@@H]1CC[C@H](n2cnc3c(O)ncnc32)O1 [Comp. Ex. 7, 2′,3′-dideoxyinosine, reference compound]
13 | 2.20 %/DDI | OC[C@@H]1CC[C@H](n2cnc3c(O)ncnc32)O1 [Comp. Ex. 8, 2′,3′-dideoxyinosine, reference compound]
14 | 2.21 %/DDI | OC[C@@H]1CC[C@H](n2cnc3c(O)ncnc32)O1 [Comp. Ex. 9, 2′,3′-dideoxyinosine, reference compound]
15 | 1.91 %/DDI | OC[C@@H]1CC[C@H](n2cnc3c(O)ncnc32)O1 [Comp. Ex. 10, 2′,3′-dideoxyinosine, reference compound]
16 | 1.38 %/DDI | OC[C@@H]1CC[C@H](n2cnc3c(O)ncnc32)O1 [Ex. 5, 2′,3′-dideoxyinosine]
17 | 1.03 %/DDI | OC[C@@H]1CC[C@H](n2cnc3c(O)ncnc32)O1 [Ex. 6, 2′,3′-dideoxyinosine]
18 | 1.19 %/DDI | OC[C@@H]1CC[C@H](n2cnc3c(O)ncnc32)O1 [Ex. 7, 2′,3′-dideoxyinosine]
19 | 0.90 %/DDI | OC[C@@H]1CC[C@H](n2cnc3c(O)ncnc32)O1 [Ex. 8, 2′,3′-dideoxyinosine]
20 | 0.70 %/DDI | OC[C@@H]1CC[C@H](n2cnc3c(O)ncnc32)O1 [Ex. 9, 2′,3′-dideoxyinosine]
21 | 0.97 %/DDI | OC[C@@H]1CC[C@H](n2cnc3c(O)ncnc32)O1 [Ex. 10, 2′,3′-dideoxyinosine]
22 | 0.90 %/DDI | OC[C@@H]1CC[C@H](n2cnc3c(O)ncnc32)O1 [Ex. 11, 2′,3′-dideoxyinosine]
23 | 1.26 %/DDI | OC[C@@H]1CC[C@H](n2cnc3c(O)ncnc32)O1 [Ex. 12, 2′,3′-dideoxyinosine]
24 | 1.04 %/DDI | OC[C@@H]1CC[C@H](n2cnc3c(O)ncnc32)O1 [Ex. 13, 2′,3′-dideoxyinosine]
